Measurements from paper PMC6118387, “In silico drug absorption tract: An agent-based biomimetic model for human oral drug absorption” (PLoS ONE, 2018).
“And” between values parts separate entries of the source, which are not always exact repeats. Identical values can stand only once. Like-named read-outs stand apart in the source and are kept apart here.

How the values were obtained:
[1] = clonazepam, literature referent value, cited from earlier work
[2] = Clinical bioequivalence study: plasma concentrations (LC-MS-MS) and noncompartmental PK after oral tablet; assay type: in vivo, human; conditions: for Concentration, individual subjects / concentration at 0 h / concentration at 0.5 h / concentration at 1 h / concentration at 1.5 h / concentration at 2 h / concentration at 3 h / concentration at 4 h / concentration at 6 h / concentration at 8 h / concentration at 10 h / concentration at 12 h / concentration at 24 h / concentration at 48 h / concentration at 72 h / concentration at 96 h: clonazepam 2 mg oral; for concentration at 0 h / concentration at 0.5 h / concentration at 1 h / concentration at 1.5 h / concentration at 2 h / concentration at 3 h / concentration at 4 h / concentration at 6 h / concentration at 8 h / concentration at 10 h / concentration at 12 h / concentration at 24 h / concentration at 48 h / concentration at 72 h / concentration at 96 h: po
[3] = model drug parameter fixed to literature reported value, cited from earlier work
[4] = Referent clinical, clonazepam 2 mg tablet oral, N = 14, mean ±1 SD
[5] = human, plasma, 2 mg, plasma, MEAN column of the sheet with 15 subject columns, read-out: Concentration, MEAN of raw data sheet
[6] = human, plasma, 2 mg, plasma, mean ±1 SD N=14, read-out: Concentration, Referent
[7] = human, plasma, 2 mg, plasma, one value per subject (A1-A6, A8, B1-B8; B5 consumed alcohol), read-out: Concentration, individual subjects
[8] = human, plasma, Referent clinical, clonazepam 2 mg tablet oral, N = 14, mean ±1 SD

With `O=C1CN=C(c2ccccc2Cl)c2cc([N+](=O)[O-])ccc2N1` [Clonazepam, clonazepam] as the compound, how does the “F (absolute oral bioavailability)” value [1] read?
The value was at least 90%.

And the “Fa × Fg” value [1]?
The value was 93–95%.

And the Fh [1]?
Its Fh is 95–97%.

What about the “Fa × Fg” value ([1]; listed as clonazepam) of the same compound?
The value was 93–95%.

What about the Fh ([1]; listed as clonazepam) of the same compound?
Its Fh is 95–97%.

What about the CL/F [2, 4] of the same compound?
Its CL/F is 3.88 ± 0.68 L/h.

What about the V/F [2, 4] of the same compound?
The V/F was 186.84 ± 25.25 L.

What about the “Concentration, individual subjects” value ([2]; plasma, 4 h, one value per subject (A1-A6, A8, B1-B8; B5 consumed alcohol)) of the same compound?
The value was 12.61 ng/mL and 14.34 ng/mL and 8.84 ng/mL and 12.65 ng/mL and 11.84 ng/mL and 14.63 ng/mL and 14.50 ng/mL and 12.96 ng/mL and 13.82 ng/mL and 11.06 ng/mL and 13.21 ng/mL and 17.02 ng/mL and 10.16 ng/mL and 10.55 ng/mL.

And the “Concentration, individual subjects” value ([2]; plasma, 6 h, one value per subject (A1-A6, A8, B1-B8; B5 consumed alcohol))?
The value was 10.50 ng/mL and 9.64 ng/mL and 15.51 ng/mL and 7.70 ng/mL and 10.12 ng/mL and 10.42 ng/mL and 11.00 ng/mL and 12.04 ng/mL and 12.42 ng/mL and 11.68 ng/mL and 12.48 ng/mL and 8.95 ng/mL and 12.72 ng/mL and 9.18 ng/mL and 8.60 ng/mL.

What about the “Concentration, individual subjects” value ([2]; plasma, 8 h, one value per subject (A1-A6, A8, B1-B8; B5 consumed alcohol)) of the same compound?
The value was 8.58 ng/mL and 9.87 ng/mL and 7.12 ng/mL and 7.80 ng/mL and 8.38 ng/mL and 11.29 ng/mL and 11.40 ng/mL and 10.91 ng/mL and 10.98 ng/mL and 11.71 ng/mL and 8.16 ng/mL and 11.31 ng/mL and 8.88 ng/mL and 8.34 ng/mL.

And the “Concentration, individual subjects” value ([2]; plasma, 10 h, one value per subject (A1-A6, A8, B1-B8; B5 consumed alcohol))?
Its value is 8.87 ng/mL and 11.42 ng/mL and 6.58 ng/mL and 7.89 ng/mL and 9.42 ng/mL and 8.97 ng/mL and 9.96 ng/mL and 11.87 ng/mL and 8.66 ng/mL and 9.83 ng/mL and 8.47 ng/mL and 9.69 ng/mL and 7.40 ng/mL and 7.44 ng/mL.

What about the “Concentration, individual subjects” value ([2]; plasma, 12 h, one value per subject (A1-A6, A8, B1-B8; B5 consumed alcohol)) of the same compound?
The value was 8.09 ng/mL and 8.83 ng/mL and 6.28 ng/mL and 6.29 ng/mL and 8.86 ng/mL and 7.97 ng/mL and 9.45 ng/mL and 11.04 ng/mL and 8.02 ng/mL and 9.77 ng/mL and 7.69 ng/mL and 8.43 ng/mL and 7.52 ng/mL and 6.76 ng/mL.

And the “Concentration, individual subjects” value ([2]; plasma, 24 h, one value per subject (A1-A6, A8, B1-B8; B5 consumed alcohol))?
Its value is 7.01 ng/mL and 7.87 ng/mL and 5.83 ng/mL and 6.96 ng/mL and 7.45 ng/mL and 7.77 ng/mL and 8.74 ng/mL and 8.99 ng/mL and 7.52 ng/mL and 8.66 ng/mL and 7.57 ng/mL and 8.32 ng/mL and 5.43 ng/mL and 6.77 ng/mL.

What about the “Concentration, individual subjects” value ([2]; plasma, 48 h, one value per subject (A1-A6, A8, B1-B8; B5 consumed alcohol)) of the same compound?
The value was 4.72 ng/mL and 5.20 ng/mL and 6.30 ng/mL and 3.61 ng/mL and 5.16 ng/mL and 4.16 ng/mL and 6.22 ng/mL and 4.74 ng/mL and 6.11 ng/mL and 5.31 ng/mL and 5.10 ng/mL and 5.12 ng/mL and 5.25 ng/mL and 4.06 ng/mL and 3.12 ng/mL.

What about the Cmax ([2]; human, plasma, oral, 2 mg, clonazepam, peak of the mean clinical concentration-time profile over 96 hours) of the same compound?
Its Cmax is 13.5 ng/mL.

What about the concentration at 0 h [2, 5] of the same compound?
The concentration at 0 h was 0 ng/mL.

What about the concentration at 0 h [2, 6] of the same compound?
The concentration at 0 h was 0 ng/mL.

What about the concentration at 0 h [2, 7] of the same compound?
The concentration at 0 h was 0 ng/mL.

What about the concentration at 0.5 h [2, 5] of the same compound?
The concentration at 0.5 h was 6.65 ng/mL.

What about the concentration at 0.5 h [2, 6] of the same compound?
Its concentration at 0.5 h is 7.13 ± 7.06 ng/mL.

And the concentration at 1 h [2, 5]?
The concentration at 1 h was 13 ng/mL.

What about the concentration at 1 h [2, 6] of the same compound?
Its concentration at 1 h is 13.4 ± 5.29 ng/mL.

What about the concentration at 1.5 h [2, 5] of the same compound?
The concentration at 1.5 h was 13.5 ng/mL.

And the concentration at 1.5 h [2, 6]?
The concentration at 1.5 h was 13.9 ± 3.71 ng/mL.

And the concentration at 2 h [2, 5]?
The concentration at 2 h was 13.1 ng/mL.

What about the concentration at 2 h [2, 6] of the same compound?
The concentration at 2 h was 13.3 ± 2.82 ng/mL.

And the concentration at 2 h [2, 7]?
The concentration at 2 h was 13.7 ng/mL.

And the concentration at 3 h [2, 5]?
Its concentration at 3 h is 12.7 ng/mL.

And the concentration at 3 h [2, 6]?
The concentration at 3 h was 12.9 ± 2.36 ng/mL.

And the concentration at 3 h [2, 7]?
The concentration at 3 h was 12.5 ng/mL.

What about the concentration at 4 h ([2]; human, plasma, 2 mg, plasma, 4 h, MEAN column of the sheet with 15 subject columns, read-out: Concentration, MEAN of raw data sheet) of the same compound?
Its concentration at 4 h is 12.7 ng/mL.

What about the concentration at 4 h ([2]; human, plasma, 2 mg, plasma, 4 h, mean ±1 SD N=14, read-out: Concentration, Referent) of the same compound?
The concentration at 4 h was 13 ± 1.82 ng/mL.

And the concentration at 4 h ([2]; human, plasma, 2 mg, plasma, 4 h, one value per subject (A1-A6, A8, B1-B8; B5 consumed alcohol), read-out: Concentration, individual subjects)?
Its concentration at 4 h is 12.7 ng/mL.

What about the concentration at 6 h ([2]; human, plasma, 2 mg, plasma, 6 h, MEAN column of the sheet with 15 subject columns, read-out: Concentration, MEAN of raw data sheet) of the same compound?
Its concentration at 6 h is 10.9 ng/mL.

And the concentration at 6 h ([2]; human, plasma, 2 mg, plasma, 6 h, mean ±1 SD N=14, read-out: Concentration, Referent)?
Its concentration at 6 h is 11.1 ± 1.87 ng/mL.

And the concentration at 8 h ([2]; human, plasma, 2 mg, plasma, 8 h, MEAN column of the sheet with 15 subject columns, read-out: Concentration, MEAN of raw data sheet)?
The concentration at 8 h was 9.62 ng/mL.

What about the concentration at 8 h ([2]; human, plasma, 2 mg, plasma, 8 h, mean ±1 SD N=14, read-out: Concentration, Referent) of the same compound?
Its concentration at 8 h is 9.8 ± 1.43 ng/mL.

What about the concentration at 8 h ([2]; human, plasma, 2 mg, plasma, 8 h, one value per subject (A1-A6, A8, B1-B8; B5 consumed alcohol), read-out: Concentration, individual subjects) of the same compound?
The concentration at 8 h was 9.63 ng/mL.

What about the concentration at 10 h ([2]; human, plasma, 2 mg, plasma, 10 h, MEAN column of the sheet with 15 subject columns, read-out: Concentration, MEAN of raw data sheet) of the same compound?
The concentration at 10 h was 9.05 ng/mL.

And the concentration at 10 h ([2]; human, plasma, 2 mg, plasma, 10 h, mean ±1 SD N=14, read-out: Concentration, Referent)?
The concentration at 10 h was 9.23 ± 1.31 ng/mL.

And the concentration at 10 h ([2]; human, plasma, 2 mg, plasma, 10 h, one value per subject (A1-A6, A8, B1-B8; B5 consumed alcohol), read-out: Concentration, individual subjects)?
The concentration at 10 h was 9.31 ng/mL.

And the concentration at 12 h ([2]; human, plasma, 2 mg, plasma, 12 h, MEAN column of the sheet with 15 subject columns, read-out: Concentration, MEAN of raw data sheet)?
The concentration at 12 h was 8.25 ng/mL.

And the concentration at 12 h ([2]; human, plasma, 2 mg, plasma, 12 h, mean ±1 SD N=14, read-out: Concentration, Referent)?
Its concentration at 12 h is 8.39 ± 1.22 ng/mL.

What about the concentration at 12 h ([2]; human, plasma, 2 mg, plasma, 12 h, one value per subject (A1-A6, A8, B1-B8; B5 consumed alcohol), read-out: Concentration, individual subjects) of the same compound?
The concentration at 12 h was 8.78 ng/mL.

And the concentration at 24 h ([2]; human, plasma, 2 mg, plasma, 24 h, MEAN column of the sheet with 15 subject columns, read-out: Concentration, MEAN of raw data sheet)?
The concentration at 24 h was 7.53 ng/mL.

And the concentration at 24 h ([2]; human, plasma, 2 mg, plasma, 24 h, mean ±1 SD N=14, read-out: Concentration, Referent)?
The concentration at 24 h was 7.65 ± 0.93 ng/mL.

And the concentration at 24 h ([2]; human, plasma, 2 mg, plasma, 24 h, one value per subject (A1-A6, A8, B1-B8; B5 consumed alcohol), read-out: Concentration, individual subjects)?
The concentration at 24 h was 8.02 ng/mL.

And the concentration at 48 h ([2]; human, plasma, 2 mg, plasma, 48 h, MEAN column of the sheet with 15 subject columns, read-out: Concentration, MEAN of raw data sheet)?
Its concentration at 48 h is 4.95 ng/mL.

What about the concentration at 48 h ([2]; human, plasma, 2 mg, plasma, 48 h, mean ±1 SD N=14, read-out: Concentration, Referent) of the same compound?
The concentration at 48 h was 5.04 ± 0.87 ng/mL.

What about the concentration at 72 h [2, 5] of the same compound?
Its concentration at 72 h is 3.13 ng/mL.

And the concentration at 72 h [2, 6]?
Its concentration at 72 h is 3.22 ± 0.71 ng/mL.

And the concentration at 96 h [2, 5]?
Its concentration at 96 h is 1.89 ng/mL.

What about the concentration at 96 h [2, 6] of the same compound?
The concentration at 96 h was 1.95 ± 0.58 ng/mL.

And the AUC [2, 8]?
The AUC was 529 ± 80.8 ng·h/mL.

What about the Cmax [2, 8] of the same compound?
The Cmax was 16.2 ± 4.28 ng/mL.

And the half-life [2, 8]?
Its half-life is 49 ± 7.79 h.

And the k el [2, 8]?
The k el was 5.83e-06 s⁻¹.

And the Tmax ([2]; human, plasma, Referent clinical, clonazepam 2 mg tablet oral, N = 14, median, read-out: Tmax)?
The Tmax was 1.5 h.

What about the “Pka, In silico acid/base equilibrium constant” value ([3]; first printed value) of the same compound?
Its value is 1.86.

And the “Pka, In silico acid/base equilibrium constant” value ([3]; second printed value)?
The value was 11.89.
